biological target: T1, 5-HT2A (Homo sapiens, UniProt P28223); experiment: Bioprofiling 6pt Ag 5-HT2A CHO; type: cell-based; settings: agonist readout
T1 construct: expressed in transfected cells; host or cells: CHO
Description: (§1) The compounds were evaluated across a panel of 20 liability targets (37 functional assays) which included functional cell-based GPCRs and ion channels in both agonist and antagonist readout, measuring calcium flux and biochemical functional assays for nuclear hormone receptors and phosphodiesterases using TR-FRET format, in a 6 point 1:3 dilution dose series (maximum final concentration of 10 μM).

T1 sequence (P28223 whole entry): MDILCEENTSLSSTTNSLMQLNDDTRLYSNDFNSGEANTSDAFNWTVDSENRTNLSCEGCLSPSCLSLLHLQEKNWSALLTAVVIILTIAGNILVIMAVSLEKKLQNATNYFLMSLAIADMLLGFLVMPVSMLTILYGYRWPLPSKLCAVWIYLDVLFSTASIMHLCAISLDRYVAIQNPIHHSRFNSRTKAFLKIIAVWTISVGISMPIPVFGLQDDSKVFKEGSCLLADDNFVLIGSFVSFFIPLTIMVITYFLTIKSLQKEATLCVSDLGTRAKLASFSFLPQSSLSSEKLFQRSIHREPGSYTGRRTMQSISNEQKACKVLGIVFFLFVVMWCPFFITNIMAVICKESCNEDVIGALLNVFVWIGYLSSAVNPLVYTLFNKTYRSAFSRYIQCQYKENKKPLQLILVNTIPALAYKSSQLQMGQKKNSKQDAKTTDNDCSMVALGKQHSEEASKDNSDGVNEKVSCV

Row | Structure (SMILES) | EC50 [µM]
1 | N#Cc1ccc2nc(NC(=O)c3ccc(C(F)(F)F)nc3)n(CC(F)(F)F)c2c1 [Compound 45, O=C(c1ccc(C(F)(F)F)nc1)Nc2nc(ccc(C#N)c3)c3n2CC(F)(F)F] | > 10
2 | N#Cc1ccc2nc(NC(=O)c3ccnc(C(F)(F)F)c3)n(CC(F)(F)F)c2c1 [Compound 44, O=C(c1ccnc(C(F)(F)F)c1)Nc2nc(ccc(C#N)c3)c3n2CC(F)(F)F] | > 10
3 | Cn1nccc1C(=O)Nc1nc2ccc(C#N)cc2n1CC(C)(C)C [Compound 29, O=C(Nc1n(CC(C)(C)C)c(c2n1)cc(C#N)cc2)c3n(C)ncc3] | > 10

tested on: PMM (Primary Mouse Macrophages); experiment: Cytotoxicity on primary peritoneal mouse macrophages; type: cell-based; settings: Mus musculus, Macrophage, read-out: IC-50 PMM (Primary Mouse Macrophages)
How it was run: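 Host cells were peritoneal macrophages from Swiss mice, harvested after 2 days of starch stimulation and kept in RPMI-1640 with 5% FCS at 37 °C, 5% CO2. Compounds were tested in 4-fold dilutions from 64 μM, with final DMSO below 1%.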

Row | Structure (SMILES) | IC50 [µM]
4 | Cn1nccc1C(=O)Nc1nc2ccc(C#N)cc2n1CC(C)(C)C [Compound 29, O=C(Nc1n(CC(C)(C)C)c(c2n1)cc(C#N)cc2)c3n(C)ncc3] | 49.3

same assay, conditions: Mus musculus, Macrophage, read-out: PMM IC50

Row | Structure (SMILES) | IC50 [µM]
5 | N#Cc1ccc2nc(NC(=O)c3ccc(C(F)(F)F)nc3)n(CC(F)(F)F)c2c1 [Compound 45, O=C(c1ccc(C(F)(F)F)nc1)Nc2nc(ccc(C#N)c3)c3n2CC(F)(F)F] | 8
6 | N#Cc1ccc2nc(NC(=O)c3ccnc(C(F)(F)F)c3)n(CC(F)(F)F)c2c1 [Compound 44, O=C(c1ccnc(C(F)(F)F)c1)Nc2nc(ccc(C#N)c3)c3n2CC(F)(F)F] | 4
7 | Cn1nccc1C(=O)Nc1nc2ccc(C#N)cc2n1CC(C)(C)C [Compound 29, O=C(Nc1n(CC(C)(C)C)c(c2n1)cc(C#N)cc2)c3n(C)ncc3] | 27.4

tested on: not listed separately; experiment: Mouse liver microsomal stability; type: in vitro ADME; settings: CD1, mouse, liver microsomes, pH 7.4, mouse liver microsome intrinsic clearance; read-out: MLM Clint
How it was run: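 Test compound at 0.5 μM incubated with 0.25 mg/mL human (200-donor pool) or CD1 mouse liver microsomes, pH 7.4, 37°C, started with […]; sampled 0–30 min. LC-MS/MS quantitation against internal standard; t1/2 and Clint (μL/min/mg) from non-linear regression of % remaining versus time.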

Row | Structure (SMILES) | microsomal CLint at 0.5 μM [µL/min/mg]
8 | Cn1nccc1C(=O)Nc1nc2ccc(C#N)cc2n1CC(C)(C)C [Compound 29, O=C(Nc1n(CC(C)(C)C)c(c2n1)cc(C#N)cc2)c3n(C)ncc3] | 17

same assay, conditions: S1 Data

Row | Structure (SMILES) | MLM CLint [µL/min/mg]
9 | N#Cc1ccc2nc(NC(=O)c3ccc(C(F)(F)F)nc3)n(CC(F)(F)F)c2c1 [Compound 45, O=C(c1ccc(C(F)(F)F)nc1)Nc2nc(ccc(C#N)c3)c3n2CC(F)(F)F] | 18

same assay, conditions: mouse liver microsome intrinsic clearance

Row | Structure (SMILES) | MLM CLint [µL/min/mg]
10 | N#Cc1ccc2nc(NC(=O)c3ccnc(C(F)(F)F)c3)n(CC(F)(F)F)c2c1 [Compound 44, O=C(c1ccnc(C(F)(F)F)c1)Nc2nc(ccc(C#N)c3)c3n2CC(F)(F)F] | 27

biological target: T2, Beta1 (Homo sapiens, UniProt P08588); experiment: Bioprofiling 6pt Ag Beta1 CHO; type: cell-based; settings: agonist readout
T2 construct: expressed in transfected cells; host or cells: CHO
Description: as §1

T2 sequence (P08588 whole entry): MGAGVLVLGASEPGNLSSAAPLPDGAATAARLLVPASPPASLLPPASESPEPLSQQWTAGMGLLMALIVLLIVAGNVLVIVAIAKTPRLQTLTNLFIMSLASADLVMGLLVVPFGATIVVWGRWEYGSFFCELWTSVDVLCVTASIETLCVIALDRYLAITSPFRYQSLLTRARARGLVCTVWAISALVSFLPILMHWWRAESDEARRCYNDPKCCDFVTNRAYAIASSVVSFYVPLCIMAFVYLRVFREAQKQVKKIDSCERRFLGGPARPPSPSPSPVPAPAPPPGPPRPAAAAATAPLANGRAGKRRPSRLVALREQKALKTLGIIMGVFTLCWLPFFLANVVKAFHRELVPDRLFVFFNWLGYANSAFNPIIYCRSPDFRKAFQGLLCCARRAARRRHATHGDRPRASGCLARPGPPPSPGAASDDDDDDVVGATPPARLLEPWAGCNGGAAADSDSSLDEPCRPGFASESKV

Row | Structure (SMILES) | EC50 [µM]
11 | N#Cc1ccc2nc(NC(=O)c3ccc(C(F)(F)F)nc3)n(CC(F)(F)F)c2c1 [Compound 45, O=C(c1ccc(C(F)(F)F)nc1)Nc2nc(ccc(C#N)c3)c3n2CC(F)(F)F] | > 10
12 | N#Cc1ccc2nc(NC(=O)c3ccnc(C(F)(F)F)c3)n(CC(F)(F)F)c2c1 [Compound 44, O=C(c1ccnc(C(F)(F)F)c1)Nc2nc(ccc(C#N)c3)c3n2CC(F)(F)F] | > 10
13 | Cn1nccc1C(=O)Nc1nc2ccc(C#N)cc2n1CC(C)(C)C [Compound 29, O=C(Nc1n(CC(C)(C)C)c(c2n1)cc(C#N)cc2)c3n(C)ncc3] | > 10

biological target: T3, B2 (Homo sapiens, UniProt P30411); experiment: Bioprofiling 6pt Ag B2 CHO; type: cell-based; settings: agonist readout
T3 construct: expressed in transfected cells; host or cells: CHO
T3 sequence (P30411 1-391): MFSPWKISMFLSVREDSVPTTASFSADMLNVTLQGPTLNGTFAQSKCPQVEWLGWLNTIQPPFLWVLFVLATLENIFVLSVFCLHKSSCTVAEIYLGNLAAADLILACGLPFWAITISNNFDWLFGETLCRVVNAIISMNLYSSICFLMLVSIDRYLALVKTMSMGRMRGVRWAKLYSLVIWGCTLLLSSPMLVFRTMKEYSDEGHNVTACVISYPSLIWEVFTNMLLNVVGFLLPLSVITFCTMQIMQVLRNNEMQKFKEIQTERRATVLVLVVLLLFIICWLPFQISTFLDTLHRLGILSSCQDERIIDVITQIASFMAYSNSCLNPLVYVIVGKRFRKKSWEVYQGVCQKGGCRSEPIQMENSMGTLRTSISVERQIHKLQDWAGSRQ
Description: as §1

Row | Structure (SMILES) | EC50 [µM]
14 | N#Cc1ccc2nc(NC(=O)c3ccc(C(F)(F)F)nc3)n(CC(F)(F)F)c2c1 [Compound 45, O=C(c1ccc(C(F)(F)F)nc1)Nc2nc(ccc(C#N)c3)c3n2CC(F)(F)F] | > 10
15 | N#Cc1ccc2nc(NC(=O)c3ccnc(C(F)(F)F)c3)n(CC(F)(F)F)c2c1 [Compound 44, O=C(c1ccnc(C(F)(F)F)c1)Nc2nc(ccc(C#N)c3)c3n2CC(F)(F)F] | > 10
16 | Cn1nccc1C(=O)Nc1nc2ccc(C#N)cc2n1CC(C)(C)C [Compound 29, O=C(Nc1n(CC(C)(C)C)c(c2n1)cc(C#N)cc2)c3n(C)ncc3] | > 10

tested on: Leishmania infantum MHOM/MA(BE)/67/ITMAP263 amastigotes; experiment: L. infantum intracellular amastigote assay in PMM; type: cell-based; settings: CC50 / L. infantum IC50
How it was run: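 Mouse peritoneal macrophages infected with hamster spleen-derived amastigotes (2 h, 37°C), then exposed to 4-fold dilutions from 64 μM (DMSO <1%) for 5 days at 37°C, 5% CO2. Burden scored microscopically after Giemsa staining as percent reduction vs untreated wells; IC50 as geometric mean of ≥2 experiments.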

Row | Structure (SMILES) | SI: selectivity index (CC50 / IC50)
17 | N#Cc1ccc2nc(NC(=O)c3ccc(C(F)(F)F)nc3)n(CC(F)(F)F)c2c1 [Compound 45, O=C(c1ccc(C(F)(F)F)nc1)Nc2nc(ccc(C#N)c3)c3n2CC(F)(F)F] | 2
18 | N#Cc1ccc2nc(NC(=O)c3ccnc(C(F)(F)F)c3)n(CC(F)(F)F)c2c1 [Compound 44, O=C(c1ccnc(C(F)(F)F)c1)Nc2nc(ccc(C#N)c3)c3n2CC(F)(F)F] | 5
19 | Cn1nccc1C(=O)Nc1nc2ccc(C#N)cc2n1CC(C)(C)C [Compound 29, O=C(Nc1n(CC(C)(C)C)c(c2n1)cc(C#N)cc2)c3n(C)ncc3] | 7

same assay, conditions: L. infantum IC50

Row | Structure (SMILES) | potency compared to initial hit 1 [fold]
20 | N#Cc1ccc2nc(NC(=O)c3ccnc(C(F)(F)F)c3)n(CC(F)(F)F)c2c1 [Compound 44, O=C(c1ccnc(C(F)(F)F)c1)Nc2nc(ccc(C#N)c3)c3n2CC(F)(F)F] | 10 to 20

same assay, conditions: Leishmania infantum, 120 h, intracellular amastigotes in PMM, 5 days; read-out: L. infantum IC50

Row | Structure (SMILES) | IC50 [µM]
21 | N#Cc1ccc2nc(NC(=O)c3ccc(C(F)(F)F)nc3)n(CC(F)(F)F)c2c1 [Compound 45, O=C(c1ccc(C(F)(F)F)nc1)Nc2nc(ccc(C#N)c3)c3n2CC(F)(F)F] | 4.3
22 | N#Cc1ccc2nc(NC(=O)c3ccnc(C(F)(F)F)c3)n(CC(F)(F)F)c2c1 [Compound 44, O=C(c1ccnc(C(F)(F)F)c1)Nc2nc(ccc(C#N)c3)c3n2CC(F)(F)F] | 0.84
23 | Cn1nccc1C(=O)Nc1nc2ccc(C#N)cc2n1CC(C)(C)C [Compound 29, O=C(Nc1n(CC(C)(C)C)c(c2n1)cc(C#N)cc2)c3n(C)ncc3] | 4.1

same assay, conditions: Leishmania infantum, S1 Data; read-out: L. infantum IC50

Row | Structure (SMILES) | IC50 [µM]
24 | N#Cc1ccc2nc(NC(=O)c3ccc(C(F)(F)F)nc3)n(CC(F)(F)F)c2c1 [Compound 45, O=C(c1ccc(C(F)(F)F)nc1)Nc2nc(ccc(C#N)c3)c3n2CC(F)(F)F] | 4.28
25 | Cn1nccc1C(=O)Nc1nc2ccc(C#N)cc2n1CC(C)(C)C [Compound 29, O=C(Nc1n(CC(C)(C)C)c(c2n1)cc(C#N)cc2)c3n(C)ncc3] | 4.12

biological target: T4, 5-HT1A (Homo sapiens, UniProt P08908); experiment: Bioprofiling 6pt Antag 5-HT1A CHO; type: cell-based; settings: antagonist readout vs 5-Carboxytryptamine (5-CT)
T4 construct: expressed in transfected cells; host or cells: CHO
T4 sequence (P08908 1-422): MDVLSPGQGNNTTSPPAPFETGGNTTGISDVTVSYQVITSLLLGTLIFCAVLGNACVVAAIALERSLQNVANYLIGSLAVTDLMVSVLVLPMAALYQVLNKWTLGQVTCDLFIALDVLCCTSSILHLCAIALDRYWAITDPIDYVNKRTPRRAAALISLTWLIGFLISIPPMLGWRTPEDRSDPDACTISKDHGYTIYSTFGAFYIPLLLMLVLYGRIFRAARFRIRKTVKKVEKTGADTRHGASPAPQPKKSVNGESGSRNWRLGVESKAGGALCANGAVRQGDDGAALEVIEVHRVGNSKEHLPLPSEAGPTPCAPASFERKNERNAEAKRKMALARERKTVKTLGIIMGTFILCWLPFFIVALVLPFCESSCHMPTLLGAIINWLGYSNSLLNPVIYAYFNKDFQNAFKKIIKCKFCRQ
Description: as §1

Row | Structure (SMILES) | IC50 [µM]
26 | N#Cc1ccc2nc(NC(=O)c3ccc(C(F)(F)F)nc3)n(CC(F)(F)F)c2c1 [Compound 45, O=C(c1ccc(C(F)(F)F)nc1)Nc2nc(ccc(C#N)c3)c3n2CC(F)(F)F] | > 10
27 | N#Cc1ccc2nc(NC(=O)c3ccnc(C(F)(F)F)c3)n(CC(F)(F)F)c2c1 [Compound 44, O=C(c1ccnc(C(F)(F)F)c1)Nc2nc(ccc(C#N)c3)c3n2CC(F)(F)F] | > 10
28 | Cn1nccc1C(=O)Nc1nc2ccc(C#N)cc2n1CC(C)(C)C [Compound 29, O=C(Nc1n(CC(C)(C)C)c(c2n1)cc(C#N)cc2)c3n(C)ncc3] | > 10

biological target: Cav1.2 (L-type) (Mus musculus, UniProt Q01815); experiment: Bioprofiling 6pt Ag Cav1.2 (L-type) ND7/23; type: cell-based; settings: mouse/rat, ND7/23 cells; agonist readout
Description: as §1

Chain of Cav1.2 (L-type) (Q01815 whole entry): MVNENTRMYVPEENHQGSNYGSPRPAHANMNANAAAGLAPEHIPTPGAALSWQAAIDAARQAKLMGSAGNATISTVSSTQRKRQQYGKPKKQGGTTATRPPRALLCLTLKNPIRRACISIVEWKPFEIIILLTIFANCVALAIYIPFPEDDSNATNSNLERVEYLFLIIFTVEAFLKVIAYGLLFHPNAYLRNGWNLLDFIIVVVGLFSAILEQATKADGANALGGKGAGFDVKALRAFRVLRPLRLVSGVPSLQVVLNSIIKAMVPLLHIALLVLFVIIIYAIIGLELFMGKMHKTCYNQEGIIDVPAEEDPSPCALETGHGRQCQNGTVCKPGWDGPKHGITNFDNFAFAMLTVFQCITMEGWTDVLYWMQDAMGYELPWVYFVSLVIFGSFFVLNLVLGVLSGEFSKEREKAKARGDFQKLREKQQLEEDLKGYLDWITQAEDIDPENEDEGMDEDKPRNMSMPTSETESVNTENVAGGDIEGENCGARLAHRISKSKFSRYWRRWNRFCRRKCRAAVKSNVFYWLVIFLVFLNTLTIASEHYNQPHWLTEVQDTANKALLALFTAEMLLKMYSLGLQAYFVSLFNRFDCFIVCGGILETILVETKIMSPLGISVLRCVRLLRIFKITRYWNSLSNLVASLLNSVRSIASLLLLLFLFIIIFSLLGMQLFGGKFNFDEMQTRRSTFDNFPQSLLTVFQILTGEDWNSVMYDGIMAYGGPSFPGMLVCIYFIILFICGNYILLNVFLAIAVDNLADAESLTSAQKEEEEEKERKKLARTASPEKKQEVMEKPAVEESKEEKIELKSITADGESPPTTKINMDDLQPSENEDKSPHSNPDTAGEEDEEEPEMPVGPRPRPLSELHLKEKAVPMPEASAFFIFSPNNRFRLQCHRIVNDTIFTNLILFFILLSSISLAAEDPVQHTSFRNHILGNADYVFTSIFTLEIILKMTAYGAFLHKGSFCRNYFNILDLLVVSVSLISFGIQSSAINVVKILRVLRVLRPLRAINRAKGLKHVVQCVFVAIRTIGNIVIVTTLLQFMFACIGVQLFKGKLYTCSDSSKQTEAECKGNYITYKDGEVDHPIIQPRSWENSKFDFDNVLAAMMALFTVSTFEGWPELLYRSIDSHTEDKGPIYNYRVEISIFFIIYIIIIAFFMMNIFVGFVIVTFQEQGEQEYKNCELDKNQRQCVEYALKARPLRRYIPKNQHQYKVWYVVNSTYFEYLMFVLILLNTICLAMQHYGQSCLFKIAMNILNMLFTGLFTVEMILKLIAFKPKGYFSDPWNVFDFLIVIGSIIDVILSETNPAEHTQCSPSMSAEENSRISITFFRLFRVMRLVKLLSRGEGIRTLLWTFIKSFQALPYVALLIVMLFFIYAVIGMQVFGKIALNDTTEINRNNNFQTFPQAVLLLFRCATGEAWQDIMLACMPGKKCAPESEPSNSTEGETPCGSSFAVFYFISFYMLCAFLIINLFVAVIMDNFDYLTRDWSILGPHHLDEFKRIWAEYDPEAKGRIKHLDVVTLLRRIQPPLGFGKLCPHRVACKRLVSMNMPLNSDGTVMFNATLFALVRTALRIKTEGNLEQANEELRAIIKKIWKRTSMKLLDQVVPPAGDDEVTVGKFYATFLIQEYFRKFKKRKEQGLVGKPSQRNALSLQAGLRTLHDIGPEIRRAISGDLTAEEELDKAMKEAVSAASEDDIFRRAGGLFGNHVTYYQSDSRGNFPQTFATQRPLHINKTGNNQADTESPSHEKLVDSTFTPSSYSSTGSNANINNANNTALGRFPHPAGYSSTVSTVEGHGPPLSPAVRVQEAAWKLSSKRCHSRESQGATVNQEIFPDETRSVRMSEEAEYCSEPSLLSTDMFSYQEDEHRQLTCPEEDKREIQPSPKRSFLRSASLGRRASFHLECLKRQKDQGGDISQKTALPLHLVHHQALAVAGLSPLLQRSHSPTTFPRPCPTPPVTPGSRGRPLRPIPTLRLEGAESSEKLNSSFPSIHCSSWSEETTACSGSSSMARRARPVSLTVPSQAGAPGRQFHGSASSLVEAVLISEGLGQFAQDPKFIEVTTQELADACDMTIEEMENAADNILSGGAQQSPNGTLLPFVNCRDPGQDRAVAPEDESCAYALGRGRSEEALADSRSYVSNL

Row | Structure (SMILES) | EC50 [µM]
29 | N#Cc1ccc2nc(NC(=O)c3ccc(C(F)(F)F)nc3)n(CC(F)(F)F)c2c1 [Compound 45, O=C(c1ccc(C(F)(F)F)nc1)Nc2nc(ccc(C#N)c3)c3n2CC(F)(F)F] | > 10
30 | N#Cc1ccc2nc(NC(=O)c3ccnc(C(F)(F)F)c3)n(CC(F)(F)F)c2c1 [Compound 44, O=C(c1ccnc(C(F)(F)F)c1)Nc2nc(ccc(C#N)c3)c3n2CC(F)(F)F] | > 10
31 | Cn1nccc1C(=O)Nc1nc2ccc(C#N)cc2n1CC(C)(C)C [Compound 29, O=C(Nc1n(CC(C)(C)C)c(c2n1)cc(C#N)cc2)c3n(C)ncc3] | > 10
